A word on the Kd: it is the equilibrium constant for the complex coming apart. The low end stands for higher affinity, the high end for lower affinity.

Where no end group is shown, it is not given here. [ ]: non-standard residue; d: D form. The star is where a group is joined. AOA = aminooxyacetyl (N-terminus modified with aminooxyacetamide), NOCC(=O)*; pY = N[C@@H](Cc1ccc(OP(=O)(O)O)cc1)C(=O)O

The target in this assay is corresponding anti-peptide antibody. Briefly: Dissociation constants (KD) between peptide and its corresponding antibody, ForteBio instrument. The format is binding, rabbit. An excerpt:
Goat anti-mouse and goat anti-rabbit antibodies were purchased from ImmunoReagents, Inc. (Raleigh, NC). Rabbit monoclonal anti-estrogen receptor (ER), anti-progesterone receptor (PR) and anti-HER2/neu receptor (HER2) antibodies were purchased from Epitomics, Inc. (Fremont, CA). Mouse anti-Ki67 was purchased from BD Biosciences, San Diego, CA Rabbit monoclonal anti-peptide antibodies against PEP1, PEP2, PEP3, PEP4, and PEP5 were obtained from AvantGen, Inc. (San Diego, CA).
The “AOA” group (aminooxyacetamide) was used to attach the peptide to the 4FB-modified primary antibody. Also shown in Table 1 are the dissociation constants (KD) between peptide and its corresponding antibody. These values were obtained using a ForteBio instrument (www.fortebio.com).
A general note: Biolayer interferometry detects binding as a change in optical thickness at a sensor tip.
For the substance “AOA-LALQAQPVPDELVTK ({AOA}-LALQAQPVPDELVTK) [PEP1]”, the Kd was determined as 0.09 nM.

Substance “AOA-GLEPGQEYNVLLTAEK ({AOA}-GLEPGQEYNVLLTAEK) [PEP4]” displayed a Kd of 0.09 nM.

“AOA-DATNVGDEGGFAPNILENK ({AOA}-DATNVGDEGGFAPNILENK) [PEP3]” had a Kd of 0.09 nM.

In the case of “AOA-RPHFPQF-pY-SASGTA ({AOA}-RPHFPQF[pY]SASGTA) [PEP5]”, binding was put at a Kd of 0.04 nM.

Take “AOA-ETSGLQEQRNHLQGK-NH2 (HELM PEPTIDE1{[NOCC(=O)[*:2]].E.T.S.G.L.Q.E.Q.R.N.H.L.Q.G.K.[am]}$$$$V2.0; SMILES CC(C)C[C@H](NC(=O)CNC(=O)[C@H](CO)NC(=O)[C@@H](NC(=O)[C@H](CCC(=O)O)NC(=O)CON)[C@@H](C)O)C(=O)N[C@@H](CCC(N)=O)C(=O)N[C@@H](CCC(=O)O)C(=O)N[C@@H](CCC(N)=O)C(=O)N[C@@H](CCCNC(=N)N)C(=O)N[C@@H](CC(N)=O)C(=O)N[C@@H](Cc1c[nH]cn1)C(=O)N[C@@H](CC(C)C)C(=O)N[C@@H](CCC(N)=O)C(=O)NCC(=O)N[C@@H](CCCCN)C(N)=O) [PEP6]”: the dissociation constant Kd worked out at 0.02 nM.

As for “AOA-DITSDTSGDFR ({AOA}-DITSDTSGDFR) [PEP2]”, the affinity, expressed as Kd, was 0.16 nM.

Values taken from patent US11867696B2, “Antigen-coupled immunoreagents” (CELL IDX, INC., priority 2015, dated 2024).
